Results reported in patent US20110160249A1, “5-LIPOXYGENASE-ACTIVATING PROTEIN INHIBITOR” (priority 2008, published 2011).
Converted amounts (≈) assume the structure as drawn.

Columns and labels:
[1] = tested on: allergen-induced early and late phases of lung-volume decline; settings: clinical trials; cited from earlier work
[2] = Liquid formulations (oral solutions/suspensions); type: physicochemical; settings: certain solvent systems, below pH values of about 9-10
Procedure: Values of pH reported were estimated based on pH indicating strips. […] Accordingly, provided in certain embodiments herein were formulations having a pH above about 9, above about 10 or of about 10. In certain embodiments, the formulation was buffered at a pH of about 10. All formulations prepared were sonicated for about 10 minutes.

[3] = tested on: whole blood ionophore-stimulated leukotriene LTB4; assay: Phase I study, whole blood ionophore-stimulated LTB4; type: in vivo, human
Text: Study Design: Single center, double-blind, randomized, placebo-controlled, single ascending dose followed by multiple ascending dose study.
Sample Size: (1) Single Dose Phase: eight (8) subjects (6 active, 2 placebo) per dose level; up to 5 dose levels are planned (a total of 40 subjects if all 5 dose levels are completed); and (2) Multiple Dose Phase: eight (8) subjects (6 active, 2 placebo) per dose level; up to 4 dose levels are planned (a total of 32 subjects if all 4 dose levels are completed).
Formulations: Compound 2 was supplied as an oral powder for reconstitution. Placebo solution matched. […] The placebo differed only in the absence of the active.
The following dosing cohorts were used:
Routes of Administration: All doses were administered orally with approximately 100 mL of water rinse. Subjects were fasted for at least 8 hours prior to dosing and for 2 hours after dosing. For BID dosing in the Multiple Dose Phase, when applicable, subjects were fasted for at least 2 hours prior to the second daily dose.
Plasma concentrations of Compound 1 were determined using a validated LC/MS method. Whole blood ionophore-stimulated leukotriene LTB4 and urinary LTE4 production were assayed by ELISA and mass spectrometry, respectively.
Analysis of Samples: Concentrations of Compound 1 was determined in plasma samples collected from subjects. Similarly, concentrations of LTB4 in plasma and urinary LTE4 were determined in blood and urine samples collected.

chronic asthma = settings: clinical studies; cited from earlier work
[4] = Gravimetric Vapour Sorption (GVS); type: physicochemical; settings: after the full sorption/desorption cycle
[5] = rat, in vivo, po
[6] = Thermodynamic Aqueous Solubility by HPLC; type: physicochemical; settings: water, 25° C.
Procedure: Aqueous solubility was determined by suspending sufficient compound in water to give a maximum final concentration of ≧10 mg·ml^−1 of the parent free-form of the compound. The suspension was equilibrated at 25° C. for 24 hours then the pH was measured. The suspension was then filtered through a glass fibre C filter into a 96 well plate. The filtrate was then diluted by a factor of 101. Quantitation was by HPLC with reference to a standard solution of approximately 0.1 mg·ml^−1 in DMSO. Different volumes of the standard, diluted and undiluted sample solutions were injected. The solubility was calculated using the peak areas determined by integration of the peak found at the same retention time as the principal peak in the standard injection.
Analysis was performed on an Agilent HP1100 series system equipped with a diode array detector and using ChemStation software vB.02.01-SR1.

O=C(O)[C@@H](c1ccc(OCc2ccc3ccccc3n2)cc1)C1CCCC1 [BAYX-1005]
efficacy in allergen-challenge studies (allergen-induced early and late phases of lung-volume decline) [1]: show efficacy

CCOc1ccc(-c2ccc(Cn3c(CC(C)(C)C(=O)O)c(SC(C)(C)C)c4cc(OCc5ccc(C)cn5)ccc43)cc2)cn1 [Compound 1, 3-[3-(tert-butylsulfanyl)-1-[4-(6-ethoxy-pyridin-3-yl)benzyl]-5-(5-methyl-pyridin-2-yl-methoxy)-1H-indol-2-yl]-2,2-dimethylpropanoic acid]
solubility in words [2]: sparingly soluble | EC50 ([3]; Homo sapiens, dose range studied, read-out: EC50, plasma concentration vs inhibition of ionophore-stimulated LTB4 production): ~0.07 µg/mL (≈ 0.11 µM) | EC90 ([3]; Homo sapiens, dose range studied, read-out: EC90, plasma concentration vs inhibition of ionophore-stimulated LTB4 production): ~0.32 µg/mL (≈ 0.502 µM) | plasma concentration at which complete inhibition of ionophore-stimulated LTB4 production was reached ([3]; in vivo): 1000 to 1500 ng/mL

CC(C)(C)Sc1c(CC(C)(C)C(=O)O)n(Cc2ccc(Cl)cc2)c2ccc(OCc3ccc4ccccc4n3)cc12 [MK-0591]
efficacy in chronic asthma (chronic asthma): shows efficacy | efficacy in allergen-challenge studies (allergen-induced early and late phases of lung-volume decline) [1]: show efficacy

CC(c1cc2ccccc2s1)N(O)C(N)=O (centres unmarked) [Zileuton, zileuton]
efficacy in chronic asthma (chronic asthma): exhibits clinical efficacy | efficacy in allergen-challenge studies (allergen-induced early and late phases of lung-volume decline) [1]: not effective

CCOc1ccc(-c2ccc(Cn3c(CC(C)(C)C(=O)[O-])c(SC(C)(C)C)c4cc(OCc5ccc(C)cn5)ccc43)cc2)cn1.[Na+] [Amorphous Phase A]
XRPD pattern after the GVS experiment [4]: No changes were observed | plasma exposures [5]: equivalent plasma exposures | Appearance of mixture after equilibration for 24 hours [6]: Suspension | Concentration of filtrate (as mg/mL of free base) ([6]; 24 hours, listed as Compound 2 Phase A): >10 mg/mL

CC(C)c1ccc2c(c1)c(SC(C)(C)C)c(CC(C)(C)C(=O)O)n2Cc1ccc(Cl)cc1 [MK-866]
efficacy in allergen-challenge studies (allergen-induced early and late phases of lung-volume decline) [1]: show efficacy
